Where “and” joins values, the source holds several entries; their conditions need not be identical. Identical values can stand only once.
Experiment: solubility of active ingredients in base oil composition
Format: physicochemical
Conditions: for Loading (wt %), soluble in base oil composition: loading not marked with *
Excerpt: The booster compositions described above include the active ingredients noted specifically for the categorical skin condition (e.g., skin brightness, skin wrinkles, visibility of pores, skin texture, and/or skin redness). In addition, the compositions cosolubilize to permit easy dispersion of the booster composition into the base oil composition. In addition to easy dispersion, the system according to the present disclosure ensures rapid homogeneity of the final products after combination of booster and base components by the consumer. In each of the booster compositions, at least one of the ingredients in the base oil composition are included in the booster compositions. For example, in one embodiment, squalane is included in each of the booster compositions. In one particularly advantageous embodiment, greater than about 20% or greater than about 25% or greater than about 30% or greater than about 35%, by weight of total composition squalane is included in each of the booster compositions. Visual assessment may be conducted to ensure cosolubility. For example, cosolubility may be determined by visual determination of incompatibility, immicible components, precipitates or other visual indicators indicating a lack of cosolubility.

Row | Compound | Loading (wt %), soluble in base oil composition | Loading (wt %), insoluble in base oil composition (loading marked * = Insoluble)
1 | CCCCCCCCC(CCCCCC)C(=O)OC[C@H](OC(=O)C(CCCCCC)CCCCCCCC)[C@H]1OC(=O)C(OC(=O)C(CCCCCC)CCCCCCCC)=C1OC(=O)C(CCCCCC)CCCCCCCC (stereo partly shown) [Ascorbyl Tetraisopalmitate] | 40% wt % and 50% wt % and 60% wt % | –
2 | CC(c1ccccc1)c1ccc(O)cc1O (stereo not shown) [Phenylethyl Resorcinol] | 5% wt % and 10% wt % and 15% wt % | –
3 | O=C(O)c1ccccc1O [Salicylic Acid] | 3% wt % | 5%* wt % and 10%* wt % and 15%* wt %
